Source: patent US20250044246A1, “NUCLEAR MAGNETIC RESONANCE METHODS OF DETERMINING HOMEOSTATIC PERTURBATIONS” (The United States of America, as represented by the …, priority 2021, published 2025)
“And” between values parts separate entries of the source, which are not always exact repeats. Identical values can stand only once. “Also recorded” adds a separate entry of the source.

Key:
[1] = test system: viable "live" ex vivo neonatal mouse spinal cords; assay: Real-time SG diffusion and SG-DEXSY measurements on viable spinal cords (Example 3); format: cell-based
Description: MR measurements were performed on viable “live” ex vivo neonatal mouse spinal cords at 13.79 MHz with a low-field single-sided magnet (PM-10 NMR MOUSE, Magritek) (Eidmann, et al., Journal of Magnetic Resonance, Series A, 122(1): 104-109 (1996)) and custom-made RF probe and solenoid coil (see FIG. 29). Diffusion was encoded on sub-micron length scales and sub-millisecond timescales with spin echoes in the presence of a g=15.3 T/m static gradient (SG) (Williamson, et al., Proceedings of the 28th annual International Society of Magnetic Resonance in Medicine (ISMRM) (2020)). SG diffusion measurements (Williamson, et al., Elife, 8: p. e51101 (2019)) and SG diffusion exchange spectroscopy (DEXY)-based exchange rate and spin-lattice relaxation rate measurements (as in Williamson, et al., Journal of Magnetic Resonance, 317: 106782 (2020)), with b1+b2=4.5 ms/μm^2) were repeatedly acquired (11 minutes per set) to observe real-time changes. During measurements, samples were maintained in a constant circulation of artificial cerebrospinal fluid (ACF) and gas and at 25° C.

Na+/K+-ATPase = conditions: cited from earlier work
[2] = test system: live ex vivo neonatal mouse spinal cords; assay: Real-time DEXSY NMR water exchange rate and R1 DW on live spinal cords (Example 1); format: cell-based; conditions: 100 μM ouabain
Description: (§1) All experiments were performed on Swiss Webster wild type (Taconic Biosciences, Rensselaer, NY, USA) mice between postnatal day 1 to 4. The mouse spinal cords were isolated and placed in a dissecting chamber perfused with cold low-calcium high magnesium artificial cerebrospinal fluid (aCSF, concentrations in mM: 128.35 NaCl, 4 KCl, 0.5 CaCl2·2H2O, 6 MgSO4·7H2O, 0.58 NaH2PO4·H2O, 21 NaHCO3, 30 D-glucose) bubbled with 95% O2 and 5% CO2). Live spinal cords were transported in low-calcium, high-magnesium aCSF to the NMR experimental apparatus. Fixed spinal cords were kept overnight in 4% paraformaldehyde at 4° C. and then stored in phosphate buffered saline (PBS) at 4° C., and washed with aCSF three times over the course of two days to remove any residual paraformaldehyde prior to experiments. Experiments on fixed and live spinal cords were performed using normal aCSF (same concentrations as the low-calcium high-magnesium solution except for 1.5 mM CaCl2·2H2O and 1 mM MgSO4·7H2O).
A PM 10 NMR MOUSE single-sided permanent magnet (Eidmann, et al., Journal of Magnetic Resonance, 122: 104-109 (1996)) (Magritek, Aachen Germany) and a Kea 2 spectrometer (Magritek, Wellington, New Zealand) were used to perform NMR experiments at B0=0.3239 T (proton ω0=13.79 MHz) and […]. A test chamber and RF probe were fabricated to maximize SNR and maintain live spinal cord viability.
Sample temperature was controlled by heat exchange with one of two circulating water baths (Accel 250 LC, Thermo Scientific, USA, and WCR-P6 Precision Regulated Bath Circulator, Daihan Scientific, Lennox Laboratory supplies, Ireland). […] Sample temperature was monitored by a fiber optic sensor (PicoM, Opsens Solutions Inc., Quebec, Canada). […]
Experimental protocols involved looping through sets of diffusion experiments and rapid DEXSY experiments to acquire repetitions of each. Noise and RF probe tuning were monitored at the beginning of each loop. […]
(§2) to estimate the restriction radius r and the restricted fraction f. Each estimate incorporated k measured from the rapid exchange experiment during the same set. […]

[3] = test system: live ex vivo neonatal mouse spinal cords; assay: Static-gradient spin echo diffusion NMR (ADCy, restricted fraction f) on live spinal cords (Example 1); format: cell-based
Description: as §1
The same experimental conditions were used for live and fixed spinal cords. […]
Diffusion experiments were performed using a standard sequence involving a spin echo (SE) for diffusion encoding followed by a CPMG signal acquisition (Rata, et al., Journal of Magnetic Resonance, 180(2): 229-235 (2006). τ (defined as half the SE echo time) was varied linearly from 0.05 to 3.3 ms over 22 steps with 4 scans per τ. This corresponds to b-values ranging from 0.001 to 400 ms/μm^2 where b=2/3γ^2g^2τ^3 (Carr, et al., Physical Review, 94(3): 630 (954), Hahn, Physical Review, 80(4): 580 (1950)). Points two through four (τ=0.2048 to 0.5143 ms, b=0.096 to 1.5 ms/μm^2) of diffusion data were fit with I(b)=I0 exp(−b ADC) to estimate the Apparent Diffusion Coefficient and I0. For measurements on spinal cords, the term ADCy is used, acknowledging that diffusion may be anisotropic but was measured only in the y direction, perpendicular to the cord. […]
as §2

[4] = test system: ex vivo neonatal mouse spinal cords; assay: Multiexponential analysis of DEXSY exchange time distribution P(τk) (Example 5); format: cell-based; conditions: 100 μM ouabain, 25° C., live tissue
Description: The probability distribution functions of the exchange time were measured, P(τk)=P(1/k) by applying multi exponential analysis using numerical inverse Laplace transforms (ILTs) to data in which the effect of exchange has been isolated. Using a low-field, static gradient system, P(τk) data were acquired from ex vivo neonatal mouse spinal cords in three conditions: fixed, live, and live whilst treated with ouabain, a sodium-potassium pump inhibitor.
The static gradient DEXSY (SG-DEXSY) pulse sequence was implemented on a PM-10 NMR MOUSE single-sided magnet at ω0=13.79 MHz, B0=0.3239 T, g=15.3 T/m with a home-built solenoid RF coil and test chamber. 90°/180° RF pulse lengths=2/2 μs, pulse powers=−22/−16 dB, TR=2 s, 8000 echo CPMG train with TE=25 μs, 8 points per echo, and 0.5 μs dwell time.
Live (i.e., viable) and fixed ex vivo neonatal (postnatal day 1-4) mouse spinal cords were studied. Spinal cords were bathed in artificial cerebrospinal fluid at 95% O2/5% CO2 and 25° C. For the ouabain treatment condition, ouabain was added at a saturating concentration of 100 μM.
Data were acquired at bs=4.5 ms/μm^2 over 69 values of tm=0.2-1000 ms. A biexponential fit to the log-ratio of signals was first performed to yield robust estimates of the intercept C0 and limit f∞/C1 (FIGS. 35A-35D). […]

organotypic CNS = conditions: after blocking Na+/K+ pump with ouabain; cited from earlier work
fixed spinal cords = assay: Osmolarity perturbation with sucrose, diffusion and DEXSY NMR on fixed spinal cords; parameters: species or system mouse
Description: as §1
Diffusion experiments were performed using a standard sequence involving a spin echo (SE) for diffusion encoding followed by a CPMG signal acquisition (Rata, et al., Journal of Magnetic Resonance, 180(2): 229-235 (2006). τ (defined as half the SE echo time) was varied linearly from 0.05 to 3.3 ms over 22 steps with 4 scans per τ. This corresponds to b-values ranging from 0.001 to 400 ms/μm^2 where b=2/3γ^2g^2τ^3 (Carr, et al., Physical Review, 94(3): 630 (954), Hahn, Physical Review, 80(4): 580 (1950)). Points two through four (τ=0.2048 to 0.5143 ms, b=0.096 to 1.5 ms/μm^2) of diffusion data were fit with I(b)=I0 exp(−b ADC) to estimate the Apparent Diffusion Coefficient and I0. For measurements on spinal cords, the term ADCy is used, acknowledging that diffusion may be anisotropic but was measured only in the y direction, perpendicular to the cord.
as §2

live spinal cords = assay: Osmolarity perturbation with sucrose, diffusion and DEXSY NMR on live spinal cords; format: cell-based, mouse; conditions: +300 mM sucrose, live samples
Description: as §1, with “MgSO4·7H2O). […]” for “MgSO4·7H2O).”
as §2

[5] = normal vs +300 mM sucrose, n=2 fixed samples

Cc1onc(O)c1CC(N)C(=O)O (stereo not drawn) [AMPA, α-amino-3-hydroxy-5-methyl-4-isoxazolepropionic acid]
effect on exchange rate ([1]; 5 μM and 10 μM AMPA, n=5): decreases; also recorded: causes exchange rate to decrease
reversibility of the effect on washout ([1]; AMPA washed out): recovers upon washout; also recorded: reversible
effect of a second dose on exchange rate ([1]; second dose of AMPA): less of an effect

C[C@@H]1O[C@@H](O[C@H]2C[C@@H](O)[C@]3(CO)[C@H]4[C@H](O)C[C@]5(C)[C@@H](C6=CC(=O)OC6)CC[C@]5(O)[C@@H]4CC[C@]3(O)C2)[C@H](O)[C@H](O)[C@H]1O [ouabain]
reduction of Na+/K+-ATPase activity (Na+/K+-ATPase; 100 μM ouabain): 65%
further increase of the effect on Na+/K+-ATPase activity (Na+/K+-ATPase; doses higher than 100 μM ouabain): 6%
time until ouabain took effect after treatment [2]: roughly 10 minutes
exchange rate k after ouabain addition ([2]; 25° C., n=3, mean (±SD), normal k=140 s^−1): 36 s⁻¹ and 36 ± 11 s⁻¹
decrease of diffusion weighted spin-lattice relaxation rate R1 DW ([2]; n=3): 8±3%
decrease of apparent diffusion coefficient ([3]; 100 μM ouabain, n=3): 9±1%
increase of restricted water fraction f ([3]; 100 μM ouabain, n=3): 22±6%
ADCy ([3]; ouabain-treated spinal cords, mean±SD, n=3, 25° C.): 0.954±0.045 μm^2/ms
exchange rate after completely blocking Na+/K+ pump ([1]; 100 μM ouabain): 50 s⁻¹
mean apparent diffusion coefficient ([1]; 100 μM ouabain): increases
restricted volume ([1]; 100 μM ouabain): increases
spin lattice relaxation rate ([1]; 100 μM ouabain): decreases
time until effect after ouabain hits the sample ([1]; 100 μM ouabain): roughly 10 minutes
timescale from no effect to full effect ([1]; 100 μM ouabain): roughly 2 minutes
decrease in water exchange rate ([1]; 100 μM ouabain, n=3): 67%
increase in relative cell volume ([1]; 100 μM ouabain, n=3): 27%
dose dependence of effect on exchange rate ([1]; 1-10 μM vs 100 μM ouabain): dose-independent effect; also recorded: all-or-none fashion
exchange rate after partially blocking Na+/K+ pump ([1]; doses as low as 1 μM ouabain, after a delay): 50 s⁻¹
normalized restricted volume ([1]; low (1-10 μM) doses of ouabain): not affected
time until effect after hitting the sample ([1]; low (1-10 μM) doses of ouabain, n=5): > 10 min
faster peak of exchange time distribution P(τk) [4]: reduced
decrease of steady-state transmembrane water exchange rate (organotypic CNS): 50%

OC[C@H]1O[C@@](CO)(O[C@H]2O[C@H](CO)[C@@H](O)[C@H](O)[C@H]2O)[C@@H](O)[C@@H]1O [sucrose]
change of ADCy (fixed spinal cords; +300 mM sucrose, fixed samples): increases negligibly
change in exchange rate k (fixed spinal cords; [5]): no change
change in restricted fraction (fixed spinal cords; [5]): insignificant
exchange rate recovered to, in ouabain-treated state ([1]; 100 mM sucrose added in ouabain-treated state (5 μM ouabain, FIG. 21), from 50 s^−1): 150 s⁻¹
effect on exchange rate in normal conditions ([1]; 100 mM sucrose, normal aCSF): small effect
change of ADCy (live spinal cords): increases ADCy significantly
